Values quoted from earlier work, collected in PMC3433420 (PLoS ONE, 2012).
pKd: −log10 of the molar value. Like-named read-outs stand apart in the source and are kept apart here.

Target: SH2 and PTB domains
Details: cited from earlier work
Source text: Supplement pone.0044471.s022.xlsx, sheet "Most recent PM interactions" | column: Kd || Supplement pone.0044471.s022.xlsx, sheet "All original PM interactions" | column: Kd

[1] = Protein SHB, most recent PM interactions, ref Jones et al. 2006 / Kaushansky et al. Mol Biosys 2008 / Kaushansky et al. Chem and Biol 2008
[2] = Protein YES1, most recent PM interactions, ref Jones et al. 2006 / Kaushansky et al. Mol Biosys 2008 / Kaushansky et al. Chem and Biol 2008
[3] = protein ABL2, ref Jones et al. 2006 / Kaushansky et al. Chem and Biol 2008
[4] = Protein ABL2, most recent PM interactions, ref Jones et al. 2006 / Kaushansky et al. Mol Biosys 2008 / Kaushansky et al. Chem and Biol 2008
[5] = Protein RASA1-N, most recent PM interactions, ref Jones et al. 2006 / Kaushansky et al. Mol Biosys 2008 / Kaushansky et al. Chem and Biol 2008
[6] = Protein SYK-NC, most recent PM interactions, ref Jones et al. 2006 / Kaushansky et al. Mol Biosys 2008 / Kaushansky et al. Chem and Biol 2008

IKEDSFLQRpYSSDPTGAd [ErbB1 1069]
pKd [1]: 6.07
pKd [2]: 6.52

LGYEpYMDVGSDLd [ErbB3 pY1224, N-terminally rhodamine-labeled 13-mer phosphopeptide]
pKd (Protein PLCG2-NC, original PM interactions, ref Jones et al. 2006 / Kaushansky et al. Chem and Biol 2008): 5.70
pKd (Protein RASA1-N, original PM interactions, ref Jones et al. 2006 / Kaushansky et al. Chem and Biol 2008): 5.70
pKd (Protein RASA1-NC, original PM interactions, ref Jones et al. 2006 / Kaushansky et al. Chem and Biol 2008): 5.70
pKd (Protein SLA, original PM interactions, ref Jones et al. 2006 / Kaushansky et al. Chem and Biol 2008): 5.70
pKd [3]: 5.95
pKd (protein PIK3R3-NC, ref Jones et al. 2006 / Kaushansky et al. Chem and Biol 2008): 5.82

AEDEpYVNEPLYLd [ErbB4 pY1202, N-terminally rhodamine-labeled 13-mer phosphopeptide]
pKd (protein SYK-N, ref Kaushansky et al. Chem and Biol 2008): 8.22

PAGSVQNPVpYHNQPLNPd [ErbB1 1110]
pKd (Protein ABL1, most recent PM interactions, ref Jones et al. 2006 / Kaushansky et al. Mol Biosys 2008 / Kaushansky et al. Chem and Biol 2008): 6.28
pKd [4]: 7.22
pKd (Protein SHC1-PTB, most recent PM interactions, ref Jones et al. 2006 / Kaushansky et al. Mol Biosys 2008 / Kaushansky et al. Chem and Biol 2008): 6.49

GTPTAENPEpYLGLDVPV [ErbB2 1248]
pKd (Protein ABL2, most recent PM interactions, ref Jones et al. 2006 / Kaushansky et al. Chem and Biol 2008): 6.68
pKd (Protein SHC1-PTB, most recent PM interactions, ref Jones et al. 2006 / Kaushansky et al. Chem and Biol 2008): 6.55

EEYEpYMNRRRRHd [ErbB3 pY1199, N-terminally rhodamine-labeled 13-mer phosphopeptide]
pKd (protein ABL2, ref Kaushansky et al. Chem and Biol 2008): 6.52
pKd (protein BLK, ref Kaushansky et al. Chem and Biol 2008): 5.74
pKd (protein FGR, ref Kaushansky et al. Chem and Biol 2008): 5.95
pKd (protein PIK3R1-NC, ref Kaushansky et al. Chem and Biol 2008): 5.82
pKd (protein PIK3R2-N, ref Kaushansky et al. Chem and Biol 2008): 5.87
pKd (protein PIK3R3-N, ref Kaushansky et al. Chem and Biol 2008): 5.86
pKd (protein PIK3R3-NC, ref Kaushansky et al. Chem and Biol 2008): 5.84
pKd (protein RASA1-N, ref Kaushansky et al. Chem and Biol 2008): 6.51
pKd (protein YES1, ref Kaushansky et al. Chem and Biol 2008): 6.23
pKd (protein ZAP70-NC, ref Kaushansky et al. Chem and Biol 2008): 5.83

ELMTFGSKPpYDGIPASEd [ErbB1 915]
pKd [4]: 6.74
pKd (Protein BLK, most recent PM interactions, ref Jones et al. 2006 / Kaushansky et al. Mol Biosys 2008 / Kaushansky et al. Chem and Biol 2008): 5.93
pKd [5]: 5.85
pKd [1]: 5.97
pKd [6]: 5.81
pKd [2]: 6.48

ENAEpYLRVAPQSd [ErbB1 pY1197, N-terminally rhodamine-labeled 13-mer phosphopeptide]
pKd (protein ABL2, ref Jones et al. 2006 / Kaushansky et al. Mol Biosys 2008 / Kaushansky et al. Chem and Biol 2008): 6.68
pKd (protein BLK, ref Jones et al. 2006 / Kaushansky et al. Mol Biosys 2008 / Kaushansky et al. Chem and Biol 2008): 6.30
pKd (protein CRK, ref Jones et al. 2006 / Kaushansky et al. Mol Biosys 2008 / Kaushansky et al. Chem and Biol 2008): 5.97
pKd (protein CRKL, ref Jones et al. 2006 / Kaushansky et al. Mol Biosys 2008 / Kaushansky et al. Chem and Biol 2008): 5.87
pKd (protein FGR, ref Jones et al. 2006 / Kaushansky et al. Mol Biosys 2008 / Kaushansky et al. Chem and Biol 2008): 6.21
pKd (protein GRB2, ref Jones et al. 2006 / Kaushansky et al. Mol Biosys 2008 / Kaushansky et al. Chem and Biol 2008): 6.38
pKd (protein ITK, ref Jones et al. 2006 / Kaushansky et al. Mol Biosys 2008 / Kaushansky et al. Chem and Biol 2008): 6.30
pKd (protein LYN, ref Jones et al. 2006 / Kaushansky et al. Mol Biosys 2008 / Kaushansky et al. Chem and Biol 2008): 6.77
pKd (protein PIK3R1-N, ref Jones et al. 2006 / Kaushansky et al. Mol Biosys 2008 / Kaushansky et al. Chem and Biol 2008): 6.30
pKd (protein PIK3R1-NC, ref Jones et al. 2006 / Kaushansky et al. Mol Biosys 2008 / Kaushansky et al. Chem and Biol 2008): 6.30
pKd (protein PIK3R2-N, ref Jones et al. 2006 / Kaushansky et al. Mol Biosys 2008 / Kaushansky et al. Chem and Biol 2008): 6.30
pKd (protein PIK3R3-NC, ref Jones et al. 2006 / Kaushansky et al. Mol Biosys 2008 / Kaushansky et al. Chem and Biol 2008): 6.09
pKd (protein PLCG2-NC, ref Jones et al. 2006 / Kaushansky et al. Mol Biosys 2008 / Kaushansky et al. Chem and Biol 2008): 6.30
pKd (protein RASA1-N, ref Jones et al. 2006 / Kaushansky et al. Mol Biosys 2008 / Kaushansky et al. Chem and Biol 2008): 6.15
pKd (protein RASA1-NC, ref Jones et al. 2006 / Kaushansky et al. Mol Biosys 2008 / Kaushansky et al. Chem and Biol 2008): 6.30
pKd (protein SHC1-PTB, ref Jones et al. 2006 / Kaushansky et al. Mol Biosys 2008 / Kaushansky et al. Chem and Biol 2008): 6.47
pKd (protein SHC1, ref Jones et al. 2006 / Kaushansky et al. Mol Biosys 2008 / Kaushansky et al. Chem and Biol 2008): 6.11
pKd (protein SHC3, ref Jones et al. 2006 / Kaushansky et al. Mol Biosys 2008 / Kaushansky et al. Chem and Biol 2008): 5.99
pKd (protein SRC, ref Jones et al. 2006 / Kaushansky et al. Mol Biosys 2008 / Kaushansky et al. Chem and Biol 2008): 6.42
pKd (protein SYK-N, ref Jones et al. 2006 / Kaushansky et al. Mol Biosys 2008 / Kaushansky et al. Chem and Biol 2008): 6.54
pKd (protein SYK-NC, ref Jones et al. 2006 / Kaushansky et al. Mol Biosys 2008 / Kaushansky et al. Chem and Biol 2008): 6.42
pKd (protein TEC, ref Jones et al. 2006 / Kaushansky et al. Mol Biosys 2008 / Kaushansky et al. Chem and Biol 2008): 6.32
pKd (protein YES1, ref Jones et al. 2006 / Kaushansky et al. Mol Biosys 2008 / Kaushansky et al. Chem and Biol 2008): 6.89

NPAPSRDPHpYQDPHSTAd [ErbB1 1125]
pKd [4]: 7.13
pKd (Protein BMX, most recent PM interactions, ref Jones et al. 2006 / Kaushansky et al. Mol Biosys 2008 / Kaushansky et al. Chem and Biol 2008): 5.97
pKd (Protein CRK, most recent PM interactions, ref Jones et al. 2006 / Kaushansky et al. Mol Biosys 2008 / Kaushansky et al. Chem and Biol 2008): 5.91
pKd [5]: 5.88
pKd [1]: 6.00
pKd [6]: 6.01
pKd (Protein TNS1, most recent PM interactions, ref Jones et al. 2006 / Kaushansky et al. Mol Biosys 2008 / Kaushansky et al. Chem and Biol 2008): 5.89
pKd [2]: 6.42

LHRIpYTHQSDVWd [ErbB1 pY891, N-terminally rhodamine-labeled 13-mer phosphopeptide]
pKd (protein HSH2D, ref Kaushansky et al. Mol Biosys 2008): 5.95
pKd (protein TNS4, ref Kaushansky et al. Mol Biosys 2008): 6.52

DNPEpYHNASNGPd [ErbB4 pY1188, N-terminally rhodamine-labeled 13-mer phosphopeptide]
pKd (protein ABL1, all original PM interactions, ref Jones et al. 2006 / Kaushansky et al. Chem and Biol 2008): 5.74
pKd (protein ABL2, all original PM interactions, ref Jones et al. 2006 / Kaushansky et al. Chem and Biol 2008): 6.12
pKd [3]: 7.46
pKd (protein NCK2, all original PM interactions, ref Jones et al. 2006 / Kaushansky et al. Chem and Biol 2008): 5.70
pKd (protein PIK3R3-NC, all original PM interactions, ref Jones et al. 2006 / Kaushansky et al. Chem and Biol 2008): 5.70
pKd (protein SHC1-PTB, all original PM interactions, ref Jones et al. 2006 / Kaushansky et al. Chem and Biol 2008): 6.55
pKd (protein SHC1-PTB, ref Jones et al. 2006 / Kaushansky et al. Chem and Biol 2008): 6.14

ENPEpYLSEFSLKd [ErbB4 pY1284, N-terminally rhodamine-labeled 13-mer phosphopeptide]
pKd (protein ABL2, ref Jones et al. 2006): 6.66
pKd (protein PIK3R2-NC, all original PM interactions, ref Jones et al. 2006): 5.70
pKd (protein PIK3R2-NC, ref Jones et al. 2006): 5.70
pKd (protein PIK3R3-NC, all original PM interactions, ref Jones et al. 2006): 5.70
pKd (protein PIK3R3-NC, ref Jones et al. 2006): 5.70
pKd (protein PLCG1-NC, all original PM interactions, ref Jones et al. 2006): 5.70
pKd (protein PLCG1-NC, ref Jones et al. 2006): 5.70
pKd (protein RASA1-N, ref Jones et al. 2006): 6.15
pKd (protein SH2B3, all original PM interactions, ref Jones et al. 2006): 5.70
pKd (protein SH2B3, ref Jones et al. 2006): 5.70
pKd (protein SHC1-PTB, ref Jones et al. 2006): 7.62
pKd (protein SLA2, all original PM interactions, ref Jones et al. 2006): 5.70
pKd (protein SLA2, ref Jones et al. 2006): 5.70
pKd (protein SYK-NC, ref Jones et al. 2006): 5.78
pKd (protein VAV2, all original PM interactions, ref Jones et al. 2006): 5.70
pKd (protein VAV2, ref Jones et al. 2006): 5.70
